According to ChEMBL document CHEMBL4304757, “Synthetic heterocyclic candidates as promising α-glucosidase inhibitors: An overview” (Eur J Med Chem, 2019):
Blank lines part the entries; values can stand above or below the molecule they belong to.

What was measured:
[1] = biological target: T1, Alpha glucosidase (Homo sapiens, UniProt O43451+P10253+P14410+Q2M2H8); assay: Inhibition of alpha-glucosidase (unknown origin) using p-nitrophenyl-alpha-d-glucopyranoside as substrate preincubated for 5 mins followed by substrate addition measured after 30 mins; type: protein assay
[2] = biological target: T1, Alpha glucosidase; assay: Inhibition of alpha-glucosidase (unknown origin) using p-nitrophenyl-alpha-d-glucopyranoside as substrate preincubated for 10 mins followed by substrate addition measured after 30 mins; type: protein assay
[3] = Inhibition of yeast alpha-glucosidase using p-nitrophenyl-alpha-d-glucopyranoside as substrate preincubated for 10 mins followed by substrate addition measured after 20 mins; parameters: species or system Saccharomyces cerevisiae
[4] = biological target: T1, Alpha glucosidase; assay: Inhibition of alpha-glucosidase (unknown origin) using pNPG as substrate preincubated for 10 mins followed by substrate addition measured after 30 mins; type: protein assay
[5] = biological target: T1, Alpha glucosidase; assay: Inhibition of alpha-glucosidase (unknown origin) using p-nitro phenyl glucopyranoside as substrate preincubated for 10 mins followed by substrate addition measured after 30 mins; type: protein assay
[6] = Inhibition of yeast alpha-glucosidase using p-nitrophenyl-alpha-d-glucopyranoside as substrate preincubated for 5 mins followed by substrate addition measured after 5 mins; parameters: species or system Saccharomyces cerevisiae

- IC50 [2]: 0.4 to 38 µM
SMILES: O=C(NNC(=S)Nc1ccc([N+](=O)[O-])cc1)c1ccc(-c2nnc(-c3ccccc3Cl)o2)cc1

- IC50 [2]: 0.4 to 38 µM
SMILES: O=C(NNC(=S)Nc1cccc(F)c1)c1ccc(-c2nnc(-c3ccccc3Cl)o2)cc1

- IC50 [2]: 0.4 to 38 µM
SMILES: O=C(NNC(=S)Nc1ccccc1Br)c1ccc(-c2nnc(-c3ccccc3Cl)o2)cc1

- IC50 [6]: 12 to 162 µM
SMILES: O=[N+]([O-])c1ccc2cc(-c3nnc(-c4ccccc4O)o3)oc2c1

- IC50 [2]: 0.4 to 38 µM
SMILES: COc1ccccc1NC(=S)NNC(=O)c1ccc(-c2nnc(-c3ccccc3Cl)o2)cc1

- IC50 [6]: 12 to 162 µM
SMILES: O=[N+]([O-])c1ccc2cc(-c3nnc(-c4cccc(O)c4)o3)oc2c1

- IC50 [2]: 0.7 µM
SMILES: O=C(NNC(=S)Nc1ccccc1Cl)c1ccc(-c2nnc(-c3ccccc3Cl)o2)cc1

- IC50 [5]: 6.2 to 81 µM
SMILES: O=C(N/N=C/c1cccc(Cl)c1)c1nc(-c2cc3ccccc3oc2=O)cs1

- IC50 [6]: 12 to 162 µM
SMILES: O=[N+]([O-])c1ccc2cc(-c3nnc(-c4ccc(Cl)cc4)o3)oc2c1

- IC50 [6]: 12 µM
SMILES: O=[N+]([O-])c1ccc2cc(-c3nnc(-c4cccc(O)c4O)o3)oc2c1

- IC50 [2]: 0.4 to 38 µM
SMILES: Cc1cccc(NC(=S)NNC(=O)c2ccc(-c3nnc(-c4ccccc4Cl)o3)cc2)c1

- IC50 [5]: 6.2 to 81 µM
SMILES: O=C(N/N=C/c1ccc(Cl)cc1)c1nc(-c2cc3ccccc3oc2=O)cs1

- IC50 [2]: 0.4 to 38 µM
SMILES: COc1ccc(NC(=S)NNC(=O)c2ccc(-c3nnc(-c4ccccc4Cl)o3)cc2)cc1

- IC50 [6]: 12 to 162 µM
SMILES: O=[N+]([O-])c1ccc2cc(-c3nnc(-c4ccccc4Cl)o3)oc2c1

- IC50 [6]: 12 to 162 µM
SMILES: O=[N+]([O-])c1ccc2cc(-c3nnc(-c4cccc(Cl)c4)o3)oc2c1

Further lines, the molecule ahead of its results:

SMILES: Cc1cccc(C(=O)/N=c2\scc(C)n2-c2cc(Cl)c(Cl)cc2Cl)c1
- IC50 [1]: 0.1 to 0.15 µM

SMILES: COc1ccc(C2C(C#N)=C(N)Oc3c2c(=O)[nH]c2c3ccc3ccccc32)cc1OC (stereo unspecified)
- IC50 [3]: 10 to 172 µM

SMILES: Cc1cs/c(=N\C(=O)c2ccco2)n1-c1cc(Cl)c(Cl)cc1Cl
- IC50 [1]: 0.1 to 0.15 µM

SMILES: O=C(N/N=C/c1ccc(Cl)cc1)c1cc2ccccc2[nH]1
- IC50 [4]: 2.3 to 226 µM

SMILES: Fc1ccc2[nH]c(-c3ccccc3)c(-c3nc(-c4ccccc4)c(-c4ccccc4)n3-c3cccc(Cl)c3)c2c1
- IC50 [4]: 8.3 to 98 µM

SMILES: O=C(N/N=C/c1cccc(O)c1O)c1cc2ccccc2[nH]1
- IC50 [4]: 2.3 to 226 µM

SMILES: COc1ccccc1/C=N/NC(=O)c1nc(-c2cc3ccccc3oc2=O)cs1
- IC50 [5]: 6.2 to 81 µM

SMILES: CN(C)c1ccc(C2C(C#N)=C(N)Oc3c2c(=O)[nH]c2c3ccc3ccccc32)cc1 (stereo unspecified)
- IC50 [3]: 10 to 172 µM

SMILES: N#CC1=C(N)Oc2c(c(=O)[nH]c3c2ccc2ccccc23)C1c1ccccc1Br (stereo unspecified)
- IC50 [3]: 10 to 172 µM

SMILES: COc1ccc(O)c(-c2nnc(-c3cc4ccc([N+](=O)[O-])cc4o3)o2)c1
- IC50 [6]: 12 to 162 µM

SMILES: COc1ccc(C(=O)/N=c2\scc(C)n2-c2cc(Cl)c(Cl)cc2Cl)cc1
- IC50 [1]: 0.1 to 0.15 µM

SMILES: N#CC1=C(N)Oc2c(c(=O)[nH]c3c2ccc2ccccc23)C1c1cccc(F)c1 (stereo unspecified)
- IC50 [3]: 10 to 172 µM

SMILES: N#CC1=C(N)Oc2c(c(=O)[nH]c3c2ccc2ccccc23)C1c1ccc([N+](=O)[O-])cc1 (stereo unspecified)
- IC50 [3]: 10 to 172 µM

SMILES: CCOC(=O)C1=C(Nc2cccc(F)c2)C[C@@H](c2ccc(Cl)cc2)N(c2cccc(F)c2)[C@@H]1c1ccc(Cl)cc1
- IC50 [2]: 2.3 to 29 µM

SMILES: Brc1ccc(-n2c(-c3c(-c4cccc(Br)c4)[nH]c4ccccc34)nc(-c3ccccc3)c2-c2ccccc2)cc1
- IC50 [4]: 8.3 to 98 µM

SMILES: CC(C)(C)c1cc(/C=N/NC(=O)c2nc(-c3cc4ccccc4oc3=O)cs2)c(O)c(C(C)(C)C)c1
- IC50 [5]: 6.2 to 81 µM

SMILES: O=C(N/N=C/c1cc(Cl)ccc1O)c1nc(-c2cc3ccccc3oc2=O)cs1
- IC50 [5]: 6.2 to 81 µM

SMILES: COc1ccc(-c2nnc(-c3cc4ccc([N+](=O)[O-])cc4o3)o2)cc1O
- IC50 [6]: 12 to 162 µM

SMILES: N#CC1=C(N)Oc2c(c(=O)[nH]c3c2ccc2ccccc23)C1c1cccc(O)c1 (stereo unspecified)
- IC50 [3]: 10 to 172 µM

SMILES: O=C(N/N=C/c1ccc(O)cc1)c1cc2ccccc2[nH]1
- IC50 [4]: 2.3 to 226 µM

SMILES: COc1ccc(/C=N/NC(=O)c2nc(-c3cc4ccccc4oc3=O)cs2)c(O)c1
- IC50 [5]: 6.2 to 81 µM

SMILES: O=C(N/N=C/c1ccc(Br)c(F)c1)c1cc2ccccc2[nH]1
- IC50 [4]: 2.3 to 226 µM

SMILES: O=C(N/N=C/c1ccccc1O)c1nc(-c2cc3ccccc3oc2=O)cs1
- IC50 [5]: 6.2 to 81 µM

SMILES: CCOC(=O)C1=C(Nc2cccc(Cl)c2)C[C@@H](c2ccc(Cl)cc2)N(c2cccc(Cl)c2)[C@@H]1c1ccc(Cl)cc1
- IC50 [2]: 2.3 to 29 µM

SMILES: CC(=O)Nc1ccc(-n2c(-c3c(-c4ccccc4)[nH]c4ccc(F)cc34)nc(-c3ccccc3)c2-c2ccccc2)cc1
- IC50 [4]: 8.3 µM

SMILES: Cc1ccsc1C1C(C#N)=C(N)Oc2c1c(=O)[nH]c1c2ccc2ccccc21 (stereo unspecified)
- IC50 [3]: 10 to 172 µM

SMILES: O=[N+]([O-])c1ccc2cc(-c3nnc(-c4cc(O)cc(O)c4)o3)oc2c1
- IC50 [6]: 12 to 162 µM

SMILES: N#CC1=C(N)Oc2c(c(=O)[nH]c3c2ccc2ccccc23)C1c1cccc([N+](=O)[O-])c1 (stereo unspecified)
- IC50 [3]: 10 to 172 µM

SMILES: O=[N+]([O-])c1ccc2cc(-c3nnc(-c4cc(O)ccc4O)o3)oc2c1
- IC50 [6]: 12 to 162 µM

SMILES: O=C(N/N=C/c1ccccc1O)c1cc2ccccc2[nH]1
- IC50 [4]: 2.3 to 226 µM

SMILES: COc1ccc(C2C(C#N)=C(N)Oc3c2c(=O)[nH]c2c3ccc3ccccc32)cc1 (stereo unspecified)
- IC50 [3]: 10 to 172 µM
